Laboratory results: ChEMBL document CHEMBL3046426, “Analytical and biological characterization of quinazoline semicarbazone derivatives” (Med Chem Res, 2010)

How the values were obtained:
Micrococcus luteus = test: Antibacterial activity against Micrococcus luteus NCIM 2155 after 18 hr by disk diffusion method; assay type: functional; further: test concentration or dose not given here
Staphylococcus = test: Antibacterial activity against Staphylococcus albus NCIM 2178 after 18 hr by disk diffusion method; assay type: functional; further: test concentration or dose not given here
Proteus vulgaris = test: Antibacterial activity against Proteus vulgaris NCIM 2239 after 18 hr by disk diffusion method; assay type: functional; further: test concentration or dose not given here
Klebsiella aerogenes = test: Antibacterial activity against Enterobacter aerogenesNCIM 2075 after 18 hr by disk diffusion method; assay type: functional, NCIM 2075; further: test concentration or dose not given here
Candida albicans = test: Antifungal activity against Candida albicans NCIM 0707 after 18 hr by disk diffusion method; assay type: functional; further: test concentration or dose not given here
[1] = Solubility of the compound in DMF; assay type: physicochemical
[2] = Solubility of the compound in ethyl acetate; assay type: physicochemical
[3] = Solubility of the compound in DMSO; assay type: physicochemical
Bacillus cereus = test: Antibacterial activity against Bacillus cereus NCIM 2018 after 18 hr by disk diffusion method; assay type: functional; further: test concentration or dose not given here
[4] = Solubility of the compound in benzene; assay type: physicochemical
[5] = Solubility of the compound in ethanol; assay type: physicochemical
[6] = Solubility of the compound in chloroform; assay type: physicochemical
Salmonella paratyphi = test: Antibacterial activity against Salmonella enterica subsp. enterica serovar Paratyphi A NCIM […] after 18 hr by disk diffusion method; assay type: functional
[7] = Solubility of the compound in water; assay type: physicochemical
[8] = Solubility of the compound in dilute acids; assay type: physicochemical
Escherichia coli = test: Antibacterial activity against Escherichia coli NCIM 2065 after 18 hr by disk diffusion method; assay type: functional; further: test concentration or dose not given here
Lederbergia lenta = test: Antibacterial activity against Bacillus lentus NCIM 2018 after 18 hr by disk diffusion method; assay type: functional; further: test concentration or dose not given here
[9] = Solubility of the compound in acetic acid; assay type: physicochemical

SMILES | diameter of the inhibition zone (DIZ) (Micrococcus luteus) [mm] | diameter of the inhibition zone (DIZ) (Staphylococcus) [mm] | diameter of the inhibition zone (DIZ) (Proteus vulgaris) [mm] | diameter of the inhibition zone (DIZ) (Klebsiella aerogenes) [mm] | diameter of the inhibition zone (DIZ) (Candida albicans) [mm] | solubility [1] | solubility [2] | solubility [3] | diameter of the inhibition zone (DIZ) (Bacillus cereus) [mm] | solubility [4] | solubility [5] | solubility [6] | diameter of the inhibition zone (DIZ) (Salmonella paratyphi) [mm] | solubility [7] | solubility [8] | diameter of the inhibition zone (DIZ) (Escherichia coli) [mm] | diameter of the inhibition zone (DIZ) (Lederbergia lenta) [mm] | solubility [9]
COc1cc(/C=N/NC(=O)Nn2c(-c3ccccc3)nc3ccccc3c2=O)ccc1O | 15 | 13 | 16 | 16 | 21 | soluble | soluble | soluble | 14 | soluble | soluble | soluble | 15 | Insoluble | soluble | 19 | 18 | soluble
O=C(N/N=C1/C(=O)Nc2ccccc21)Nn1c(-c2ccccc2)nc2ccccc2c1=O | 16 | 13 | 17 | 17 | 22 | soluble | soluble | soluble | 12 | soluble | soluble | soluble | 16 | Insoluble | soluble | 21 | 17 | soluble
CC12CCC(C/C1=N/NC(=O)Nn1c(-c3ccccc3)nc3ccccc3c1=O)C2(C)C (centres undefined) | 14 | 12 | 17 | 16 | 20 | soluble | soluble | soluble | 14 | Insoluble | soluble | soluble | 15 | Insoluble | Insoluble | 18 | 17 | Insoluble
O=C(NN=C(c1ccccc1)c1ccccc1)Nn1c(-c2ccccc2)nc2ccccc2c1=O | 12 | 10 | 16 | 15 | 25 | soluble | soluble | soluble | 15 | soluble | soluble | soluble | 16 | Insoluble | Insoluble | 21 | 17 | Insoluble
CN(C)c1ccc(/C=N/NC(=O)Nn2c(-c3ccccc3)nc3ccccc3c2=O)cc1 | 16 | 16 | 18 | 17 | 21 | soluble | soluble | soluble | 17 | soluble | soluble | soluble | 15 | Insoluble | Insoluble | 19 | 18 | Insoluble
O=C(O)c1cn(C2CC2)c2cc(N3CCNCC3)c(F)cc2c1=O [CIPROFLOXACIN] | 8 | 8 | 8 | 10 | – | – | – | – | 9 | – | – | – | 8 | – | – | 16 | 9 | –
Clc1ccccc1C(c1ccccc1)(c1ccccc1)n1ccnc1 [CLOTRIMAZOLE] | – | – | – | – | 14 | – | – | – | – | – | – | – | – | – | – | – | – | –
